3 compounds from patent US20230357314A1, “METHODS FOR ULTRAFAST FORMATION OF DISULFIDE BONDS IN PEPTIDES AND PROTEINS” (TECHNION RESEARCH & DEVELOPMENT FOUNDATION LIMITED, priority 2020, published 2023) can be followed below.

In brackets after ≈: the same amount, converted by molar mass. Like-named read-outs stand apart in the source and are kept apart here. Positions of bridges follow the written chain, without caps; N, C: chain ends. Residues, ends and D or L forms follow the SMILES beside them.

Assay [1] concerns methicillin resistant Staphylococcus aureus (MRSA). Kind of assay: microbe, parasite or virus in culture. The following applies: 17 h.
Assay [2] shares this test system. The following applies: for MIC: MRSA growth after 17 h at 37° C., LB medium, absorbance at 600 nm, triplicate.

`COc1cc(Cc2cnc(N)nc2N)cc(OC)c1OC` [TMP, trimethoprim] registered an MIC in assay [1] of 2 µM (≈ 0.581 µg/mL).

As to `CC[C@H](C)[C@@H]1NC(=O)[C@H](CO)NC(=O)[C@H](CCCCN)NC(=O)[C@@H]2CSSC[C@@H](C(=O)N[C@@H](Cc3ccc(O)cc3)C(N)=O)NC(=O)[C@H](CCCCN)NC(=O)[C@@H]3CSSC[C@H](NC(=O)[C@H](CCC(N)=O)NC(=O)[C@H](CCSC)NC(=O)[C@H](CC(=O)O)NC(=O)[C@H](CC(=O)O)NC(=O)[C@H](CCC(=O)O)NC(=O)[C@H](CC(=O)O)NC(=O)[C@H](Cc4c[nH]c5ccccc45)NC(=O)[C@@H]4CCCN4C(=O)CNC(=O)[C@H](CC(N)=O)NC(=O)[C@@H](NC(=O)CNC(=O)[C@H](Cc4ccccc4)NC(=O)CN)CSSC[C@H](NC(=O)[C@H](Cc4ccc(O)cc4)NC(=O)CNC(=O)CNC(=O)[C@H](CCCCN)NC(=O)[C@H](Cc4ccc(O)cc4)NC(=O)CNC(=O)[C@H](CCCCN)NC1=O)C(=O)N[C@@H](C)C(=O)N[C@@H](CCCCN)C(=O)NCC(=O)NCC(=O)N[C@@H](Cc1ccccc1)C(=O)N[C@@H](C(C)C)C(=O)N3)C(=O)N[C@@H](Cc1c[nH]cn1)C(=O)N[C@@H](CC(N)=O)C(=O)N[C@@H](Cc1c[nH]cn1)C(=O)N2` [plectasin WT, plectasin, reference compound], the MIC in assay [2] was 5 µM (≈ 22 µg/mL).

Turning to `CC[C@H](C)[C@@H]1NC(=O)[C@H](CO)NC(=O)[C@H](CCCCN)NC(=O)[C@@H]2CSSC[C@@H](C(=O)N[C@@H](Cc3ccc(O)cc3)C(N)=O)NC(=O)[C@H](CCCCN)NC(=O)[C@@H]3CSSC[C@H](NC(=O)[C@H](CCC(N)=O)NC(=O)[C@H](C)NC(=O)[C@H](CC(=O)O)NC(=O)[C@H](CC(=O)O)NC(=O)[C@H](CCC(=O)O)NC(=O)[C@H](CC(=O)O)NC(=O)[C@H](Cc4c[nH]c5ccccc45)NC(=O)[C@@H]4CCCN4C(=O)CNC(=O)[C@H](CC(N)=O)NC(=O)[C@@H](NC(=O)CNC(=O)[C@H](Cc4ccccc4)NC(=O)CN)CSSC[C@H](NC(=O)[C@H](Cc4ccc(O)cc4)NC(=O)CNC(=O)CNC(=O)[C@H](CCCCN)NC(=O)[C@H](Cc4ccc(O)cc4)NC(=O)CNC(=O)[C@H](CCCCN)NC1=O)C(=O)N[C@@H](C)C(=O)N[C@@H](CCCCN)C(=O)NCC(=O)NCC(=O)N[C@@H](Cc1ccccc1)C(=O)N[C@@H](C(C)C)C(=O)N3)C(=O)N[C@@H](Cc1c[nH]cn1)C(=O)N[C@@H](CC(N)=O)C(=O)N[C@@H](Cc1c[nH]cn1)C(=O)N2` [plectasinMet13Ala] (H-GFGCNGPWDEDDAQCHNHCKSIKGYKGGYCAKGGFVCKCY-NH2; disulfide 4-30, 15-37, 19-39; N-terminus assumed), the “improvement of the antimicrobial activity” value in assay [2] (MRSA MIC analysis, worded as 'even in comparison to' trimethoprim (TMP)) was “four-fold”. Moreover, the “enhanced activity relative to the wild type plectasin” value in assay [2] (MRSA MIC, relative to wild type plectasin) is “four-fold”. Moreover, in assay [2], the MIC came out at 1.25 µM (≈ 5.43 µg/mL).
